Reference: patent publication US8410163B2, “Substituted 4-amino-5-benzoyl-2-(phenylamino)thiophene-3-carbonitriles and substituted 4-amino-5-benzoyl-2-(phenylamino)thiophene-3-carboxamides as tubulin polymerization inhibitors” (Telik, Inc., priority 2009, dated 2013)
Like-named read-outs stand apart in the source and are kept apart here.

Legend:
[1] = tested on: A549 (human lung adenocarcinoma); assay: Cytotoxicity assay (CellTiter-Glo), A549; type: cell-based; conditions: 72 h, A549 cells, three days culture, rounded to 1 significant figure
Description: (§1) The cell lines A549 (human lung adenocarcinoma), OVCAR-3 (human ovarian carcinoma), HL60 (human promyelocytic leukemia), DLD1 (human colon adenocarcinoma) and HCT116 (human colon carcinoma) were obtained from the American Type Culture Collection, Manassas, Va., U.S.A. All products were used in accordance with manufacturer's directions. The histone phosphorylation (p-H3) assay was conducted in duplicate and the cytotoxicity assays were conducted in triplicate, in each case with solvent control.
(§2) Log-phase cells were trypsinized, collected by centrifugation, and resuspended in a small volume of fresh medium, and the density of viable cells was determined following Trypan Blue staining. Cells were diluted in fresh media, the test compounds (concentrations between 0.1 μM and 200 μM, dissolved in DMSO, 50 μL) added immediately after dilution to achieve a final DMSO concentration of 0.5%, then the suspensions added at 150 μL/well to 96-well plates, and incubated overnight to allow attachment in the case of adherent cells. The cells were cultured for three days (about three doubling times). The cells were then collected by centrifugation, and 100 μL of the culture supernatant was replaced by the CellTiter-Glo reagent. After incubation for 15 minutes at room temperature, the plate was read with a luminometer. […] The table gives cytotoxicity IC50s in μM, rounded to 1 significant figure.

[2] = tested on: HL60 (human promyelocytic leukemia); assay: Cytotoxicity assay (CellTiter-Glo), HL-60; type: cell-based; conditions: 72 h, HL-60 cells, three days culture, rounded to 1 significant figure
Description: as §1, §2

p-H3 in A549 cells = assay: Histone phosphorylation (p-H3) assay; type: cell-based; conditions: Homo sapiens, 4 hr incubation, dot-blot
Description: as §1
Log phase A549 cells were seeded in a 96-well plate and allowed to attach overnight. The test compounds were diluted in DMSO (8 concentrations with serial 3-fold dilutions) and added to the cells (0.5% DMSO final concentration), and the cells incubated for 4 hr. The cells were then washed three times with cold phosphate-buffered saline (PBS), and lysis buffer was added. After 30 min shaking at 4° C. and centrifugation, the supernatants were transferred to a nitrocellulose membrane by a “dot-blot” apparatus. After washing the wells, the membrane was processed for Western blot. Detection of p-H3 and β-actin was performed on the same membrane with primary rabbit anti-p-H3 and mouse anti-β-actin antibodies followed by secondary goat anti-rabbit IRDye800 and goat anti-mouse AlexaFluor 680 antibodies. The membranes were scanned on an Odyssey scanner.

[3] = tested on: HCT116 (human colon carcinoma); assay: Cytotoxicity assay (CellTiter-Glo), HCT116; type: cell-based; conditions: HCT-116, 72 h, HCT116 cells, three days culture, rounded to 1 significant figure
Description: as §1, §2

[4] = tested on: tubulin polymerization in A549 cells; assay: Inhibition of tubulin polymerization in A549 cells by immunomicroscopy and cell fractionation; type: cell-based, human
[5] = tested on: HL60 (human promyelocytic leukemia) xenograft; assay: HL60 xenograft assay, oral administration; type: in vivo; conditions: Mus musculus, HL-60, po, nu/nu mice, read-out: inhibition of tumor growth compared to vehicle
Description: (§3) Male athymic nu/nu mice, 6-8 weeks old (about 20 g), were implanted subcutaneously in the right fore flank with about 1×10^7 cells of the HL60 (human promyelocytic leukemia) line that had been grown in antibiotic-free medium for at least two passages. About 6 days after tumor implantation, when the tumor weight was about 50-250 mg, the mice were assigned to treatment groups. Test compounds were suspended at 20 mg/mL in 0.55 wt. % aqueous carboxymethylcellulose. Groups of mice were treated with compounds 2A, 9A, and 12A at 200 mg/Kg by gavage once/day on days 1-5 and 8-10 from the start of treatment, with vehicle control. Tumor growth inhibition was measured on the last day of treatment.
The experiment was conducted generally as described in In vivo Example 1. Groups of mice were treated with compounds 5A, 6A, 7A, 8A, and 10A at 200 mg/Kg by gavage once/day on days 1-5 and 8-10 from the start of treatment, with vehicle control. Tumor growth inhibition was measured the day after the last day of treatment.

[6] = tested on: OVCAR-3 (human ovarian carcinoma); assay: Cytotoxicity assay (CellTiter-Glo), OVCAR-3; type: cell-based; conditions: 72 h, OVCAR-3 cells, three days culture, rounded to 1 significant figure
Description: as §1, §2

[7] = tested on: DLD1 (human colon adenocarcinoma); assay: Cytotoxicity assay (CellTiter-Glo), DLD1; type: cell-based; conditions: DLD-1, 72 h, DLD1 cells, three days culture, rounded to 1 significant figure
Description: as §1, §2

tubulin = assay: Inhibition of tubulin polymerization, cell-free fluorescence assay; type: biochemical
[8] = tested on: HCT116 (human colon carcinoma) xenograft; assay: HCT116 xenograft assay, oral administration; type: in vivo; conditions: nu/nu mice, 200 mg/Kg by gavage once/day days 1-5 and 8-12, measured 2 days after the last day of treatment
Description: as §3, with “the HCT116” for “the HL60”, “(human colon carcinoma)” for “(human promyelocytic leukemia)”, “About 14-21” for “About 6”, “tumor transplantation,” for “tumor implantation,”, “and 8-12” for “and 8-10”, “measured 2 days after” for “measured on”

IC50 (p-H3 in A549 cells) [nM] | IC50 ([4]; read-out: IC50, inhibition of tubulin polymerization in A549 cells) [nM] | SMILES | IC50 [1] [nM] | IC50 [2] [nM] | IC50 [3] [nM] | inhibition in vivo at 200 mg/kg ([5]; 200 mg/Kg by gavage once/day days 1-5 and 8-10, measured the day after the last day of treatment (In vivo Example 3)) [%] | activity in tubulin polymerization assay in A549 cells [4] | IC50 [6] [nM] | IC50 [7] [nM] | inhibition of tubulin polymerization (cell-free) (tubulin) | inhibition in vivo at 200 mg/kg ([5]; 200 mg/Kg by gavage once/day days 1-5 and 8-10, measured on the last day of treatment (In vivo Example 1)) [%] | inhibition of tumor growth compared to vehicle [8] [%]
500 |  | CCc1ccc(Nc2sc(C(=O)c3ccc(Cl)cc3)c(N)c2C#N)cc1 [Compound 15A, 4-amino-5-(4-chlorobenzoyl)-2-[(4-ethylphenyl)amino]thiophene-3-carbonitrile] | 100 | 90 |  |  |  |  |  |  |  | 
 | 9 | COc1ccc(Nc2sc(C(=O)c3ccc(OC)cc3OC)c(N)c2C#N)cc1 [Compound 7A, 4-amino-5-(2,4-dimethoxybenzoyl)-2-[(4-methoxyphenyl)amino]thiophene-3-carbonitrile] | 30 | 20 | 10 | 45 |  |  |  |  |  | 
 |  | N#Cc1ccc(Nc2sc(C(=O)c3ccc(Cl)cc3)c(N)c2C#N)cc1 [Compound 40A] | 2000 |  |  |  | inactive |  |  |  |  | 
20 |  | COc1ccc(Nc2sc(C(=O)c3ccc(Cl)cc3)c(N)c2C#N)cc1 [Compound 2A] | 10 | 10 | 10 |  |  | 20 | 6 | inhibition of tubulin polymerization | 46 | 35
